Drawing on ChEMBL document CHEMBL5653615 (J Biol Chem, 2013), this text covers inhibition for two compounds.

Broadly, the inhibition is the relative decrease from the control value, in per cent.

The target of experiment [1] is T1, Activin receptor type-1 (Homo sapiens) (UniProt Q04771).
T1 sequence (whole entry): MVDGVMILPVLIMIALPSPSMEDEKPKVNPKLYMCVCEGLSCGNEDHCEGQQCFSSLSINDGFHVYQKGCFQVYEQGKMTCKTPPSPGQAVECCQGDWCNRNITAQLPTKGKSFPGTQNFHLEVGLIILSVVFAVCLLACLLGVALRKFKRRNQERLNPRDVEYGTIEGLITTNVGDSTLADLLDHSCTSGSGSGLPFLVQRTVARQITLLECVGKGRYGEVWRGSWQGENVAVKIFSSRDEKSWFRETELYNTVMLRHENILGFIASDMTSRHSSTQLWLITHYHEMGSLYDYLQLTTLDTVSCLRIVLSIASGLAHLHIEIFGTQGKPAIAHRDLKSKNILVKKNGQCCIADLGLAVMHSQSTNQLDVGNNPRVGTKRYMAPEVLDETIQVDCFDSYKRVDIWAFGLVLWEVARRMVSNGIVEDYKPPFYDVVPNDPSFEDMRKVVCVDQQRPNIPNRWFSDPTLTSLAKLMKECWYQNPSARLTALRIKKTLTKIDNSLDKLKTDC
The experiment in a line: Inhibition of human ALK2 at 500 nM by HotSpot assay relative to control.

The target in experiment [2] is G protein-coupled receptor kinase 4 (Homo sapiens) (UniProt P32298). Briefly: Inhibition of human GRK4 at 500 nM by HotSpot assay relative to control.
Experiment [3] concerns the target Mitogen-activated protein kinase kinase kinase kinase 5 (Homo sapiens) (UniProt Q9Y4K4). Briefly: Inhibition of human KHS at 500 nM by HotSpot assay relative to control.
Experiment [4] has as its target Homeodomain-interacting protein kinase 2 (Homo sapiens) (UniProt Q9H2X6). Briefly: Inhibition of human HIPK2 at 500 nM by HotSpot assay relative to control.
Experiment [5] addresses Misshapen-like kinase 1 (Homo sapiens) (UniProt Q8N4C8). Briefly: Inhibition of human MINK1 at 500 nM by HotSpot assay relative to control.
For experiment [6], the target named is Cyclin-dependent kinase 5/CDK5 activator 1 (Homo sapiens) (UniProt Q00535+Q15078). Briefly: Inhibition of human CDK5/p35 at 500 nM by HotSpot assay relative to control. Type of experiment: protein-complex assay.
Experiment [7] deals with Tyrosine-protein kinase Lyn (Homo sapiens) (UniProt P07948). Briefly: Inhibition of human LYN at 500 nM by HotSpot assay relative to control.
Experiment [8] deals with Tyrosine-protein kinase receptor UFO (Homo sapiens) (UniProt P30530). The experiment in a line: Inhibition of human AXL at 500 nM by HotSpot assay relative to control.
In experiment [9] the target is Ribosomal protein S6 kinase alpha-4 (Homo sapiens) (UniProt O75676). Briefly: Inhibition of human RPS6KA4 at 500 nM by HotSpot assay relative to control.
Experiment [10] addresses Vascular endothelial growth factor receptor 1 (Homo sapiens) (UniProt P17948). Briefly: Inhibition of human FLT1 at 500 nM by HotSpot assay relative to control.
The target in experiment [11] is RAF proto-oncogene serine/threonine-protein kinase (Homo sapiens) (UniProt P04049). Briefly: Inhibition of human RAF1 at 500 nM by HotSpot assay relative to control.
Experiment [12] has as its target CDK4/Cyclin D3 (Homo sapiens) (UniProt P11802+P30281). The experiment in a line: Inhibition of human CDK4/cyclin D3 at 500 nM by HotSpot assay relative to control. Type of experiment: protein-complex assay.
In experiment [13] the target is Activated CDC42 kinase 1 (Homo sapiens) (UniProt Q07912). The experiment in a line: Inhibition of human ACK1 at 500 nM by HotSpot assay relative to control.
For experiment [14], the target named is T2, Tyrosine-protein kinase Mer (Homo sapiens) (UniProt Q12866).
T2 sequence (whole entry): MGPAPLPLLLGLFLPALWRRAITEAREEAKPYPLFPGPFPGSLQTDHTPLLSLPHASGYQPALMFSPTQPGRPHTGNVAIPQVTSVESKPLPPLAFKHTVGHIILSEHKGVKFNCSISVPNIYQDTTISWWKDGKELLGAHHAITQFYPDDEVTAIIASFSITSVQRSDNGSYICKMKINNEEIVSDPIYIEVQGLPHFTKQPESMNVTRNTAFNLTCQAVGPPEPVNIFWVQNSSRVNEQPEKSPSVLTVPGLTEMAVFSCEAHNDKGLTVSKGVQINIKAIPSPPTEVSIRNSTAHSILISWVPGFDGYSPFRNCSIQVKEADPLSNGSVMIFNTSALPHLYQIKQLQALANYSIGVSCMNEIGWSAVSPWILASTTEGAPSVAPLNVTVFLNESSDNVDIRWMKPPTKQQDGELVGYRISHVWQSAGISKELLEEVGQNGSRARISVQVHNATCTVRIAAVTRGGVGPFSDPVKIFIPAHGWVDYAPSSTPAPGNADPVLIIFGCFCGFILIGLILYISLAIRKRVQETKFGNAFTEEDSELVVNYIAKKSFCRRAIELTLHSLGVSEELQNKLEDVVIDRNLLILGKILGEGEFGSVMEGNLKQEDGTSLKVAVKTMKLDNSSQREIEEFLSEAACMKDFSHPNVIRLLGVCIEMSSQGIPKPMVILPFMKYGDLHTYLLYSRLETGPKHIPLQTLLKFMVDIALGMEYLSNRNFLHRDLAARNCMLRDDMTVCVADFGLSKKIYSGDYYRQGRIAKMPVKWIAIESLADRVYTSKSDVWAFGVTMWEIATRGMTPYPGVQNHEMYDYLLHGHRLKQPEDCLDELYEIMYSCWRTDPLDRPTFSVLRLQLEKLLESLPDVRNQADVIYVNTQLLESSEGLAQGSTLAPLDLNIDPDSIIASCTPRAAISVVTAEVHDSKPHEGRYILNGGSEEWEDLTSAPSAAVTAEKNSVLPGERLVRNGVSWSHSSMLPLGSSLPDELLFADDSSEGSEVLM
Briefly: Inhibition of human c-MER at 500 nM by HotSpot assay relative to control.

Cyclin-dependent kinase 5/CDK5 activator 1 (Homo sapiens), sequence (Q00535 whole entry): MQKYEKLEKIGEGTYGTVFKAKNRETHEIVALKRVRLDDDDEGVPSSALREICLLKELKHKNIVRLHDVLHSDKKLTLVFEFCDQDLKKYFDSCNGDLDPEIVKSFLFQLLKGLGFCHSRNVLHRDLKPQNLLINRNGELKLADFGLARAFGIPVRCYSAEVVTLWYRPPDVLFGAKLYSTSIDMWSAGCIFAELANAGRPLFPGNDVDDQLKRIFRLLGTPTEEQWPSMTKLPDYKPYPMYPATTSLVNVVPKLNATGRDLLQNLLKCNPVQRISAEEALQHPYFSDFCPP
Cyclin-dependent kinase 5/CDK5 activator 1 (Homo sapiens), sequence (Q15078 99-307 partner limits assumed): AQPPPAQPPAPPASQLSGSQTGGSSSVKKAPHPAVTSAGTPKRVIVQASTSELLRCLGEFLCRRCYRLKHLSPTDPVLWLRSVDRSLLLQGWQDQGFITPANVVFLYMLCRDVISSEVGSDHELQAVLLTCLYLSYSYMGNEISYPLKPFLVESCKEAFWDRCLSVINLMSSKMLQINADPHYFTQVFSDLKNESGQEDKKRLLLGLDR
Activated CDC42 kinase 1 (Homo sapiens), sequence (Q07912 whole entry, looked up): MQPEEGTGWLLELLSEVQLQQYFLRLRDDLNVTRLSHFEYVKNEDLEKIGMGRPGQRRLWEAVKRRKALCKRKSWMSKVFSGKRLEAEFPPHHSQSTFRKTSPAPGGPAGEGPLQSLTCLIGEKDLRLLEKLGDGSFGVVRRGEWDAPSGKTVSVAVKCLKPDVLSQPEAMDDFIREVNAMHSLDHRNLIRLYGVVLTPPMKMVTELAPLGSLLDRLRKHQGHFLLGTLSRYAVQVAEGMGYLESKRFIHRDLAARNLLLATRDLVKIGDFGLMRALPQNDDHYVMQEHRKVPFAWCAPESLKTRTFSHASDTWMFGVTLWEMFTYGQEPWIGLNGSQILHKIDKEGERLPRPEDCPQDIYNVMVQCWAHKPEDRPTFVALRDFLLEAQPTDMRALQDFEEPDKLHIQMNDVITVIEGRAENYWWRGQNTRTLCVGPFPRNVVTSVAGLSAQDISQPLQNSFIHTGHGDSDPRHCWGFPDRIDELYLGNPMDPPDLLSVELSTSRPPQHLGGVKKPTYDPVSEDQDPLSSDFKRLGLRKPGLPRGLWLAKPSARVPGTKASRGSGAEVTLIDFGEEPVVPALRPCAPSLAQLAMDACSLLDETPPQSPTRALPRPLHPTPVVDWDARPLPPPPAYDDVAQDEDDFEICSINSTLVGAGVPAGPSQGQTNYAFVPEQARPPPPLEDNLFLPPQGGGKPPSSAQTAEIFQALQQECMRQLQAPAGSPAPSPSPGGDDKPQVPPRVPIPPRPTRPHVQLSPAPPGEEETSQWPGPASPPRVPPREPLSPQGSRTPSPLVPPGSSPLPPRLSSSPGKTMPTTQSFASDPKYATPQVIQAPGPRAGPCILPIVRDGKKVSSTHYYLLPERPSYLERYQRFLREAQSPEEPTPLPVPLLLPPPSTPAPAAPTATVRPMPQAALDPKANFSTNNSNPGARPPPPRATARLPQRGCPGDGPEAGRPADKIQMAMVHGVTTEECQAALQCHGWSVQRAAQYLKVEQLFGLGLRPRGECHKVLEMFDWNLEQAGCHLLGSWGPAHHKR
RAF proto-oncogene serine/threonine-protein kinase (Homo sapiens), sequence (P04049 whole entry): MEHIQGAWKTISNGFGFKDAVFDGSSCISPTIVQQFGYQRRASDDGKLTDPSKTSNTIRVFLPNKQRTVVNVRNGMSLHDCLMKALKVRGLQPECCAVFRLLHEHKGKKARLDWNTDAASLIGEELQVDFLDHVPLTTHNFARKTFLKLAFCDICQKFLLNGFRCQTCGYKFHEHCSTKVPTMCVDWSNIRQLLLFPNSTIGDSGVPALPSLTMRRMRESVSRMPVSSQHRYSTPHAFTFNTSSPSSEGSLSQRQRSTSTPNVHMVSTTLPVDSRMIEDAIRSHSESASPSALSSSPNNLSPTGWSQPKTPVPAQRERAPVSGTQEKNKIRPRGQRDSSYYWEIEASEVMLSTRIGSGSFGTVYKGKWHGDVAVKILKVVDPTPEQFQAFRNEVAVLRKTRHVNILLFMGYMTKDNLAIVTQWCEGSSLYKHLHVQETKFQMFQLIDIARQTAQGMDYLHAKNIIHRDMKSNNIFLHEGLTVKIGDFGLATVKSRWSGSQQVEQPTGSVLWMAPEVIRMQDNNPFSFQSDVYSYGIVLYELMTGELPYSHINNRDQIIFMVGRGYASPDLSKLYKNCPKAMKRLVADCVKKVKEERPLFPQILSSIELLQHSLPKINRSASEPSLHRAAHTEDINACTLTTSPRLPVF
Ribosomal protein S6 kinase alpha-4 (Homo sapiens), sequence (O75676 whole entry, looked up): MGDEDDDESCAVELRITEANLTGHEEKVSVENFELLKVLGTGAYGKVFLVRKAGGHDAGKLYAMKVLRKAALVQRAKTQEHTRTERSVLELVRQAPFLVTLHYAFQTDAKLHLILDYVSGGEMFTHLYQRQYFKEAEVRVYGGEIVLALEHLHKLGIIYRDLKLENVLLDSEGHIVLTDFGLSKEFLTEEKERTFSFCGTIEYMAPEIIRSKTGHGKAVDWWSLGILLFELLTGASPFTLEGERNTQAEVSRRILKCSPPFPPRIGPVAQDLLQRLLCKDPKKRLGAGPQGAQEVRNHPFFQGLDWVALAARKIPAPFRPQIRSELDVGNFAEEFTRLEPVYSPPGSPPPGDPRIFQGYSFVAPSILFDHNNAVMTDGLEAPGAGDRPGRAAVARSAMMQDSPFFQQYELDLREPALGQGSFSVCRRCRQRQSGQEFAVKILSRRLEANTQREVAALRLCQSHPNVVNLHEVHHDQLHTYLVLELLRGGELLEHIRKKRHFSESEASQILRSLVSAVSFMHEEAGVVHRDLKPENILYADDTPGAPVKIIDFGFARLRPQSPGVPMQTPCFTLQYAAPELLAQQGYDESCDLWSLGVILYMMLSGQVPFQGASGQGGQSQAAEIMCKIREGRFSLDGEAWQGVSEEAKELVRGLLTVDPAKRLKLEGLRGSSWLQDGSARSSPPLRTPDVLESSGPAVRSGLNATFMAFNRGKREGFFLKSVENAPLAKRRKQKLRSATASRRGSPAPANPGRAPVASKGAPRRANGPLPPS
Tyrosine-protein kinase receptor UFO (Homo sapiens), sequence (P30530 whole entry): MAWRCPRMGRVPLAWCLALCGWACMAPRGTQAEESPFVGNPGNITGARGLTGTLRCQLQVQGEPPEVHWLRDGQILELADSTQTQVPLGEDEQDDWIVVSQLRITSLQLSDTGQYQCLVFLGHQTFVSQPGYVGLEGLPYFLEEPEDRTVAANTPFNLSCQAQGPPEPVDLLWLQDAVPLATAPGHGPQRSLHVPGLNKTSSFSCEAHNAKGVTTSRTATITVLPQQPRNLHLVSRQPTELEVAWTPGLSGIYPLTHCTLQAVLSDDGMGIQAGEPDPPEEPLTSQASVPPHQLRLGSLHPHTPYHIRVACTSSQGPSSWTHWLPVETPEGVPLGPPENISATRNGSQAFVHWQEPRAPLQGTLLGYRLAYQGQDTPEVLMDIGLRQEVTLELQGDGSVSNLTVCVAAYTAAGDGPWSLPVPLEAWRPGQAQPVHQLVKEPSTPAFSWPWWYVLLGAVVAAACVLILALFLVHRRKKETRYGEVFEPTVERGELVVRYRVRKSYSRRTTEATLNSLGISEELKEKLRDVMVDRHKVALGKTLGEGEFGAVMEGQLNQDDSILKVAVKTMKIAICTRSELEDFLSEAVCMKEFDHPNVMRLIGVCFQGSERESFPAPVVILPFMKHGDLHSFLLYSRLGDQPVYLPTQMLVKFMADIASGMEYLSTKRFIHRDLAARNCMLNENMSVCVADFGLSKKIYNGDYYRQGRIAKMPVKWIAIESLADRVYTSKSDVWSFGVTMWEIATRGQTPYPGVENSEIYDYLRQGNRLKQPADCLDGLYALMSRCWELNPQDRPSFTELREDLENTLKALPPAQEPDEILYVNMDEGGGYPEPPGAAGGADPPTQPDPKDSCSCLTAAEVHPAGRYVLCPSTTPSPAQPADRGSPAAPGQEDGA
Mitogen-activated protein kinase kinase kinase kinase 5 (Homo sapiens), sequence (Q9Y4K4 whole entry, looked up): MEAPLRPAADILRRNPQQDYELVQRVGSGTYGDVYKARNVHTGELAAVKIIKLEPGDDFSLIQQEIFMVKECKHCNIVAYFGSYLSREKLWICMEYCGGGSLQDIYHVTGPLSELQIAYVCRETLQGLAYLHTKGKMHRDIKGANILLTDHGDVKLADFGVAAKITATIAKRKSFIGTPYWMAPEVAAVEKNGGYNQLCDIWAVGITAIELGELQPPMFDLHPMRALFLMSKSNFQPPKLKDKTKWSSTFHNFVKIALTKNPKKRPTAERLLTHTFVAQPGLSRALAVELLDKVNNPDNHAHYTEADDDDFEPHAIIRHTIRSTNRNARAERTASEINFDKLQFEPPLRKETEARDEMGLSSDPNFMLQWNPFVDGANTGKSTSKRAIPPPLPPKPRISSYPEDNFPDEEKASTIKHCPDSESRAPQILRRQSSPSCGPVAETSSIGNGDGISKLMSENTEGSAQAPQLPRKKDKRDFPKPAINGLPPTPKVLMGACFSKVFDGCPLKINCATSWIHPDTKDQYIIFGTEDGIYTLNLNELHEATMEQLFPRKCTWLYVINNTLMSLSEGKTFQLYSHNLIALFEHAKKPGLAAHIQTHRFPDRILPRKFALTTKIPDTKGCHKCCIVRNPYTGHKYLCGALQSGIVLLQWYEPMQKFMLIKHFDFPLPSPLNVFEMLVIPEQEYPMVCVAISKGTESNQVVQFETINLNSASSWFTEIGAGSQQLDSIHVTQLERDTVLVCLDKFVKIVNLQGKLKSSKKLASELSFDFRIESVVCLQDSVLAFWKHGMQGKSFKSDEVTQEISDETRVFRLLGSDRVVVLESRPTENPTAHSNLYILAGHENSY

Regarding `Nc1n[nH]c2nnc(-c3c(-c4ccccc4)nn4ccccc34)cc12`, the inhibition in experiment [1] was -7.19%; in experiment [2], -2.71%; in experiment [3] it was 49.7%; in experiment [4], 0.35%; in [5], 27.1%; in experiment [6], -4.88%. Besides, the inhibition in experiment [7] is 5.07%; in experiment [8], 0.88%; in experiment [9] it was 5.31%; in experiment [10], 3.34%; in experiment [11], 4.42%; in experiment [12], -0.36%. Moreover, the results for the inhibition in experiment [13] and in experiment [14] were 17.3% and 23.6%, respectively.
`Oc1n[nH]c2nnc(-c3c(-c4ccccc4)nn4ccccc34)cc12`: the inhibition in experiment [1] was 0.23%; in [2], -1.17%; in [3] it was 3.59%; in experiment [4], -0.79%; in [5], 2.28%; in [6], -2.59%. Besides, the inhibition in experiment [7] is 2.29%; in [8] it was -1.44%; in experiment [9], 1.99%; in experiment [10] it was 0.38%; in [11], 1.96%; in [12], -0.94%. The inhibition worked out at 8.98% in [13] and 2% in [14].
